Results from patent US20230104936A1, “TRPML MODULATORS” (Casma Therapeutics, Inc., priority 2019, published 2023).

Test system: TFEB
Test: TFEB nuclear translocation assay, HeLa wt cells
Assay type: cell-based
Settings: 2 hrs compound treatment, Table 1 does not say HeLa wt or TRPML1 KO
How it was run: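 TFEB translocation into the nucleus of HeLa wt cells is scored by high-content immunofluorescence after 2 hrs of compound treatment at 37° C, reported as AC50.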

COCC1(C)CCN(c2c(NS(=O)(=O)c3ccc(S(=O)(=O)N(C)C)cc3)ccc3c2cnn3C)CC1 [Compound A-746, N4-{4-[4-(methoxymethyl)-4-methylpiperidin-1-yl]-1-methyl-1H-indazol-5-yl}-N1,N1-dimethylbenzene-1,4-disulfonamide]
AC50 (Homo sapiens, HeLa, 2 h): ≤ 2000 nM

CC(c1cccc(F)c1N1CCOCC1)S(=O)(=O)c1ccc2c(c1)CCS2(=O)=O (single isomer, unassigned) [Compound A-967, 5-((1-(3-fluoro-2-morpholinophenyl)ethyl)sulfonyl)-2,3-dihydrobenzo[b]thiophene 1,1-dioxide]
AC50: ≥ 10000 nM

Cc1noc(NS(=O)(=O)c2ccc(S(=O)(=O)N(C)C)cc2)c1C1CCN(c2ccc(Cl)cc2F)CC1 [Compound A-105, N4-{4-[1-(4-chloro-2-fluorophenyl)piperidin-4-yl]-3-methyl-1,2-oxazol-5-yl}-N1,N1-dimethylbenzene-1,4-disulfonamide]
AC50 (Homo sapiens, HeLa, 2 h): ≥ 10000 nM

COCCOCCOCCOc1ccc(S(=O)(=O)Nc2ccccc2N2CCC(c3ccc(Cl)cc3F)CC2)cc1 [Compound A-588, N-{2-[4-(4-chloro-2-fluorophenyl)piperidin-1-yl]phenyl}-4-{2-[2-(2-methoxyethoxy)ethoxy]ethoxy}benzene-1-sulfonamide]
AC50 (Homo sapiens, HeLa, 2 h): ≤ 2000 nM

COc1ccc(S(=O)(=O)Nc2ccccc2OCc2ccc(F)cc2F)cc1 [Compound A-187, N-(2-((2,4-difluorobenzyl)oxy)phenyl)-4-methoxybenzenesulfonamide]
AC50 (Homo sapiens, HeLa, 2 h): ≥ 10000 nM

CC1(C)CC2(CCN(c3ccccc3NS(=O)(=O)c3ccc(C4CC4)s3)CC2)CO1 [Compound A-674, 5-cyclopropyl-N-(2-{3,3-dimethyl-2-oxa-8-azaspiro[4.5]decan-8-yl}phenyl)thiophene-2-sulfonamide]
AC50 (Homo sapiens, HeLa, 2 h): ≤ 2000 nM

O=S(=O)(Nc1cccc(Cl)c1N1CCOCC1)c1ccc(C2CC2)cc1 [Compound A-391, N-[3-chloro-2-(morpholin-4-yl)phenyl]-4-cyclopropylbenzene-1-sulfonamide]
AC50 (Homo sapiens, HeLa, 2 h): 2010 to 8000 nM

CN(CC(C)(C)O)S(=O)(=O)c1ccc(S(=O)(=O)Nc2ccccc2N2CCC(c3c(F)cccc3F)CC2)cc1 [Compound A-224, N4-{2-[4-(2,6-difluorophenyl)piperidin-1-yl]phenyl}-N1-(2-hydroxy-2-methylpropyl)-N1-methylbenzene-1,4-disulfonamide]
AC50 (Homo sapiens, HeLa, 2 h): ≥ 10000 nM

COc1cccc(S(=O)(=O)Nc2ccccc2N2CCN(c3ccc(Cl)cc3F)CC2)c1 [Compound A-4, N-{2-[4-(4-chloro-2-fluorophenyl)piperazin-1-yl]phenyl}-3-methoxybenzene-1-sulfonamide]
AC50 (Homo sapiens, HeLa, 2 h): ≤ 2000 nM

CC(Nc1ccccc1N1CCC(c2ccc(Cl)cc2F)CC1)c1ccc(S(=O)(=O)N(C)C)cc1 (stereo not shown) [Compound A-443, 4-[1-({2-[4-(4-chloro-2-fluorophenyl)piperidin-1-yl]phenyl}amino)ethyl]-N,N-dimethylbenzene-1-sulfonamide]
AC50 (Homo sapiens, HeLa, 2 h): 2010 to 8000 nM

C[C@@H]1CN(CC2CCN(c3c(F)cccc3NS(=O)(=O)c3ccc(S(=N)(=O)N(C)C)cc3)CC2)C[C@H](C)O1 (stereo partly drawn) [Compound A-769, N-(2-(4-(((2S,6R)-2,6-dimethylmorpholino)methyl)piperidin-1-yl)-3-fluorophenyl)-4-(N,N-dimethylsulfamimidoyl)benzene-sulfonamide]
AC50 (Homo sapiens, HeLa, 2 h): ≤ 2000 nM

O=S(=O)(Cc1ccc(F)c(Cl)c1)Nc1cccc(Cl)c1N1CCOCC1 [Compound A-368, N-[3-chloro-2-(morpholin-4-yl)phenyl]-1-(3-chloro-4-fluorophenyl)methanesulfonamide]
AC50 (Homo sapiens, HeLa, 2 h): 2010 to 8000 nM

O=S(=O)(Nc1cc(Cl)ccc1N1CCCC2(CCCOC2)C1)c1ccc2c(c1)CCC2 (stereo not shown) [Compound A-347, N-(5-chloro-2-{2-oxa-8-azaspiro[5.5]undecan-8-yl}phenyl)-2,3-dihydro-1H-indene-5-sulfonamide]
AC50 (Homo sapiens, HeLa, 2 h): ≤ 2000 nM

COc1ccc(S(=O)(=O)Nc2ccccc2N2CC(N(C)c3ccc(F)cc3F)C2)cc1 [Compound A-188, N-(2-{3-[(2,4-difluorophenyl)(methyl)amino]azetidin-1-yl}phenyl)-4-methoxybenzene-1-sulfonamide]
AC50 (Homo sapiens, HeLa, 2 h): ≥ 10000 nM

CC(c1cccc(F)c1N1CCCCC1)S(=O)(=O)c1ccc(S(=O)(=O)N(C)C)cc1 (single isomer, unassigned) [Compound A-911, 4-((1-(3-fluoro-2-(piperidin-1-yl)phenyl)ethyl)sulfonyl)-N,N-dimethylbenzenesulfonamide]
AC50 (Homo sapiens, HeLa, 2 h): ≤ 2000 nM

CC(c1ccncc1N1CCC(CN2C[C@@H](C)O[C@@H](C)C2)CC1)S(=O)(=O)c1ccc(S(=O)(=O)N(C)C)cc1 (stereo partly drawn) [Compound A-850, 4-{1-[3-(4-{[(2R,6S)-2,6-dimethylmorpholin-4-yl]methyl}piperidin-1-yl)pyridin-4-yl]ethanesulfonyl}-N,N-dimethylbenzene-1-sulfonamide]
AC50 (Homo sapiens, HeLa, 2 h): 2010 to 8000 nM

CCOC(=O)N1CCN(c2ccccc2NS(=O)(=O)c2ccc(S(=O)(=O)N(C)C)cc2)CC1 [Compound A-308, ethyl 4-{2-[4-(dimethylsulfamoyl)benzenesulfonamido]phenyl}piperazine-1-carboxylate]
AC50 (Homo sapiens, HeLa, 2 h): 2010 to 8000 nM

COCC1(C)CCN(c2ccccc2NS(=O)(=O)Cc2ccc(OC)cc2)CC1 [Compound A-582, N-{2-[4-(methoxymethyl)-4-methylpiperidin-1-yl]phenyl}-1-(4-methoxyphenyl)methanesulfonamide]
AC50 (Homo sapiens, HeLa, 2 h): 2010 to 8000 nM

COCC1(C)CCN(c2ccccc2NS(=O)(=O)c2ccc(C)cc2)CC1 [Compound A-539, N-{2-[4-(methoxymethyl)-4-methylpiperidin-1-yl]phenyl}-4-methylbenzene-1-sulfonamide]
AC50 (Homo sapiens, HeLa, 2 h): ≤ 2000 nM

CN(C)S(=O)(=O)c1ccc(S(=O)(=O)Nc2ccccc2N2CCN(CC3CCOCC3)CC2)cc1 [Compound A-510, N1,N1-dimethyl-N4-(2-{4-[(oxan-4-yl)methyl]piperazin-1-yl}phenyl)benzene-1,4-disulfonamide]
AC50 (Homo sapiens, HeLa, 2 h): ≤ 2000 nM

Cc1nocc1S(=O)(=O)Nc1ccccc1N1CCN(c2ccc(Cl)cc2F)CC1 [Compound A-35, N-{2-[4-(4-chloro-2-fluorophenyl)piperazin-1-yl]phenyl}-3-methyl-1,2-oxazole-4-sulfonamide]
AC50 (Homo sapiens, HeLa, 2 h): ≥ 10000 nM

CC(C)(C)C(=O)N1CCN(c2ccccc2NS(=O)(=O)c2ccc(C(F)F)cc2)CC1 [Compound A-529, 4-(difluoromethyl)-N-{2-[4-(2,2-dimethylpropanoyl)piperazin-1-yl]phenyl}benzene-1-sulfonamide]
AC50 (Homo sapiens, HeLa, 2 h): 2010 to 8000 nM

COc1ccc(S(=O)(=O)Nc2ccccc2N2CCC(c3ccc(F)cc3F)CC2)nc1 [Compound A-118, N-{2-[4-(2,4-difluorophenyl)piperidin-1-yl]phenyl}-5-methoxypyridine-2-sulfonamide]
AC50 (Homo sapiens, HeLa, 2 h): 2010 to 8000 nM

COc1ccc(S(=O)(=O)Nc2ccccc2-c2ccc(F)cc2F)cc1 [Compound A-167, N-(2′,4′-difluoro-[1,1′-biphenyl]-2-yl)-4-methoxybenzenesulfonamide]
AC50 (Homo sapiens, HeLa, 2 h): 2010 to 8000 nM

CN(C)S(=O)(=O)c1ccc(C(C)(C)Nc2ccccc2N2CCN(Cc3ccccc3)CC2)cc1 [Compound A-733, 4-(2-{[2-(4-benzylpiperazin-1-yl)phenyl]amino}propan-2-yl)-N,N-dimethylbenzene-1-sulfonamide]
AC50 (Homo sapiens, HeLa, 2 h): 2010 to 8000 nM

O=S(=O)(Nc1cccc(N2CCC(c3ccc(Cl)cc3F)CC2)c1)c1cccc(F)c1 [Compound A-122, N-{3-[4-(4-chloro-2-fluorophenyl)piperidin-1-yl]phenyl}-3-fluorobenzene-1-sulfonamide]
AC50 (Homo sapiens, HeLa, 2 h): ≥ 10000 nM

CCS(=O)(=O)c1ccc(S(=O)(=O)Nc2ccccc2N2CCC(c3c(F)cccc3F)CC2)cc1 [Compound A-198, N-{2-[4-(2,6-difluorophenyl)piperidin-1-yl]phenyl}-4-(ethanesulfonyl)benzene-1-sulfonamide]
AC50 (Homo sapiens, HeLa, 2 h): ≤ 2000 nM

CC1(C)Cc2cc(S(=O)(=O)Nc3ccccc3N3CCC4(CCOCC4)CC3)ccc2O1 [Compound A-654, 2,2-dimethyl-N-(2-{3-oxa-9-azaspiro[5.5]undecan-9-yl}phenyl)-2,3-dihydro-1-benzofuran-5-sulfonamide]
AC50 (Homo sapiens, HeLa, 2 h): ≤ 2000 nM

CN(C)S(=O)(=O)c1ccc(S(=O)(=O)Nc2ccccc2N2CCC(C)(C3(O)CC3)CC2)cc1 [Compound A-558, N1-(2-(4-(1-hydroxycyclopropyl)-4-methylpiperidin-1-yl)phenyl)-N4,N4-dimethylbenzene-1,4-disulfonamide]
AC50 (Homo sapiens, HeLa, 2 h): 2010 to 8000 nM

CC(C)Oc1ccc(S(=O)(=O)Nc2cccc(Cl)c2N2CCOCC2)cc1 [Compound A-457, N-[3-chloro-2-(morpholin-4-yl)phenyl]-4-(propan-2-yloxy)benzene-1-sulfonamide]
AC50 (Homo sapiens, HeLa, 2 h): 2010 to 8000 nM

CN(C)S(=O)(=O)c1ccc(S(=O)(=O)Nc2cccc(N3CCC(c4ccc(Cl)cc4F)CC3)c2)cc1 [Compound A-46, N4-{3-[4-(4-chloro-2-fluorophenyl)piperidin-1-yl]phenyl}-N1,N1-dimethylbenzene-1,4-disulfonamide]
AC50 (Homo sapiens, HeLa, 2 h): ≥ 10000 nM

CN(C)S(=O)(=O)c1ccc(S(=O)(=O)Nc2ccccc2N2CCC(C)(C(=O)NC(C)(C)C)CC2)cc1 [Compound A-361, N-tert-butyl-1-{2-[4-(dimethylsulfamoyl)benzenesulfonamido]phenyl}-4-methylpiperidine-4-carboxamide]
AC50 (Homo sapiens, HeLa, 2 h): ≤ 2000 nM

CN1CC2(CCN(c3ccc(Cl)cc3NS(=O)(=O)c3ccc4c(c3)CCC4)CC2)c2ccc(F)cc21 [Compound A-439, N-(5-chloro-2-{6-fluoro-1-methyl-1,2-dihydrospiro[indole-3,4′-piperidin]-1′-yl}phenyl)-2,3-dihydro-1H-indene-5-sulfonamide]
AC50 (Homo sapiens, HeLa, 2 h): ≤ 2000 nM

CN(C)S(=O)(=O)c1ccc(S(=O)(=O)Nc2ccccc2N2CCN(C(=O)[C@@H]3C[C@H]3C(C)(F)F)CC2)cc1 (racemic) [Compound A-463, rac-N4-(2-{4-[(1R,2R)-2-(1,1-difluoroethyl)cyclopropanecarbonyl]piperazin-1-yl}phenyl)-N1,N1-dimethylbenzene-1,4-disulfonamide]
AC50 (Homo sapiens, HeLa, 2 h): 2010 to 8000 nM
